Square brackets hold non-standard residues; d marks the D form. Peptide text beside a SMILES is read from it.
Assays:
[1] = tested on: VEGF-induced retinal vascular permeability; type: in vivo, Wistar rats; conditions: rats, single 0.5% eye drop at different times before intravitreal VEGF
[2] = Ocular pharmacokinetics after one eye drop, rats; type: in vivo, Wistar rats; conditions: 3 hours post-dose
[3] = Ocular pharmacokinetics after one eye drop, rabbits; type: in vivo, New Zealand white rabbits
[4] = NZ rabbits, single eyedrop of 0.5%, mean ± SEM, N = 3 eyes per timepoint, SEM
[5] = rabbits, single 0.5% eye drop, 24 hours

CC[C@@H](C)[C@H]1NC(=O)[C@@H]([C@H](C)O)NC(=O)[C@@H](Cc2c[nH]cn2)NC(=O)CNC(=O)[C@@H](CCCNC(=N)N)NC(=O)CNC(=O)[C@@H](Cc2ccccc2)NC1=O [VIAN-c4551] (cyclo([dI][dF]G[dR]G[dH][dT]))
Duration of protective effect against VEGF challenge after the eye drop [1]: 24 h
Concentration in the vitreous (molar) [2]: ~0.391 µM
AUC0-24h, Retina-Choroid [3, 4]: 467,434 ± 45,884 hours × ng g^-1
AUC0-24h, Vitreous [3, 4]: 1,678 ± 182 hours × ng mL^-1
Cmax, Retina-Choroid [3, 4]: 51,693.81 ± 6678.9 ng g^-1
Retina-choroid exposure at 24 hours above IC50 ([3]; rabbits, 24 hours, vs IC50 for endothelial permeability): > 4 orders of magnitude
Cmax in retina-choroid (molar) ([3]; rabbits, single 0.5% eye drop): ~67 µM
Retina/choroid Cmax above IC50 (137.3 pM) ([3]; rabbits, single 0.5% eye drop): 5 orders of magnitude
Cmax in retina-choroid ([3]; rabbits, single 0.5% eye drop (50 µL), HUVEC bioactivity read-out): 52 µg/g
Exposure in retina-choroid after 24 hours [3, 5]: 3.5 µg/g
Exposure in retina-choroid after 24 hours (molar) [3, 5]: ~4.64 µM
Exposure in vitreous after 24 hours [3, 5]: 10.6 ng/mL
Exposure in vitreous after 24 hours (molar) [3, 5]: ~13.88 nM
Time for which high retina-choroid levels lasted ([3]; rabbits, single topical instillation of 0.5%): 24 h
